Experiments:
Sprague Dawley rat pups = assay: Oxygen-induced retinopathy (OIR) model; format: in vivo; details: 2 mg/kg/day intraperitoneal twice daily, 80% oxygen P5 to P10; for extent of vaso-obliteration (percentage of total retinal area): vehicle ˜30%
Description: Experiments in the oxygen-induced retinopathy rodent model were preformed according to the method described previously (Geranurimi et al. 2019), and summarized below.
Animals. Two-day-old (P2) Sprague Dawley rat pups and their mothers were ordered from Charles River (Raleigh, SC, USA) and acclimatized for 3 days in standard conditions. All procedures and protocols involving the use of the rats were approved by the Animal Care Committee of the research center of Hopital Maisonneuve-Rosemont and are in accordance with the Statement for the Use of Animals in Ophthalmic and Vision Research approved by the Association for Research in Vision and Ophthalmology, and guidelines established by the Canadian Council on Animal Care.
Oxygen-Induced Retinopathy in Sprague Dawley Rats. The 80% oxygen model of retinopathy was conducted as previously described (Geranurimi et al. 2019). Briefly, litters of P5 pups and their mothers were kept in a controlled 80% oxygen environment until P10. The pups were respectively injected intraperitoneally twice daily with PBS vehicle (20 μL per injection), peptide 1 or derivatives 2 (titrated to a daily dose of 2 mg/kg/day). Control litters were kept under normal air atmosphere and standard conditions. On P10, pups were euthanized by decapitation under 2% isoflurane anesthesia. Eyes were enucleated and fixed in 4% paraformaldehyde, then stored at 4° C. in phosphate-buffered saline (PBS) until further processing.
Retinal Flatmount and Immunohistochemistry. The fixed eyes were dissected, and the obtained retinas were incubated with antibodies and mounted onto slides as previously described in (Geranurimi et al. 2019). Briefly, the cornea and lens were removed from the eyes, and the retina gently removed from the underlying sclera-choroid-retinal pigmented epithelium (RPE) complex. Retinas were treated for 1h with blocking solution [1% bovine serum albumin (BSA), 1% normal goat serum, 0.1% Triton X-100 and 0.05% Tween-20 in PBS], and then incubated overnight with lectin and Iba-1 primary antibody, followed by Alexa-594-conjugated secondary antibody for 2 h. Retinas were then mounted onto microscope slides under coverslips with anti-fade mounting medium.
Microscopy. Retinal flatmounts were imaged using the Zeiss Axiolmager Z2 and the MosaiX feature of the AxioVision software as previously described (Geranurimi et al. 2019). Representative images after Iba-1 staining were taken using a laser scanning confocal microscope (Olympus IX81 with Fluoview FV1000 Scanhead) using the Fluoview Software at 30× magnification.
Quantification and Data Analysis. The FIJI software was used to quantify the area of vaso-obliteration in each retina, expressed as a percentage of the area of the whole retina. The number of Iba-1-positive cells was counted using the cell counter plug-in in the FIJI software, and the average of cell counts in 4 fields per retina was calculated. Data was analyzed using Prism 7 with one-way ANOVA and the Dunnett's test for multiple comparisons. Results were treated as significant when p was less than 0.05 and expressed as mean+SEM.

[1] = tested on: IL-1β-induced NF-κB signaling in HEK-Blue IL-33/IL-1β cells; assay: NF-κB QUANTI-Blue assay; format: cell-based; details: Kineret 1.0 mg/mL, 30 min pretreatment, IL-1β 100 ng/ml
Protocol: FIG. 3 is a graph showing the effects of peptides 1 and 2 on IL-1β-induced NF-κB signaling in HEK-Blue cells as quantified in the QUANTI-blue assay. After pre-incubation with peptide or vehicle, HEK-Blue cells were stimulated with IL-1β for 24 h, and secreted alkaline phosphatase activity was spectroscopically detected as a reporter product from the transcription of the NF-κB gene. Data shown represents the average of 2 experiments (each with n=4 per treatment group): ****p<0.0001 compared to group treated only with IL-1β.
HEK-Blue IL-33/IL-1β cells (InvivoGen) were respectively pretreated with peptides 1 and 2 (10^−6 M), or Kineret (1.0 mg/mL) for 30 min, followed by treatment with a constant concentration of […] (100 ng/ml), and incubation at 37° C. for 4 h. Levels of secreted alkaline phosphatase in cell culture supernatant were determined using the QUANTI-Blue assay, according to the manufacturer's instructions (InvivoGen). Alkaline phosphatase activity was assessed by measuring the optical density (OD) at 620-655 nm with an EnVision Multilabel micro plate reader (PerkinElmer, Waltham, MA). Data are representative of 3 experiments (each with n=4 per treatment group).

[2] = tested on: COX-2 (PTGHS2) gene expression; assay: qPCR of COX-2 gene expression in RAW 264.7 macrophages; format: cell-based; details: peptide 10^−6 M, 30 min pre-incubation, IL-1β stimulation, RAW 264.7 mouse macrophages
Protocol: (§1) FIGS. 4A and 4B are graphs showing the results of qPCR analysis of IL-1β (FIG. 4A) and COX-2 (FIG. 4B) gene expression within lysates from RAW 264.7 mouse macrophage cells after exposure to peptides 1 and 2 (10^-6 M) or Kineret (1 mg/mL) followed by […] incubation overnight. Results represent an average of 3 independent experiments (each with n=4 per treatment group) and are expressed as a fold-change of the non-stimulated control: *p<0.05, **p<0.01 compared to group treated only with IL-1β, and 18S rRNA as internal control. Treatment groups that are not labeled with asterisks are statistically non-significant compared to group treated only with IL-1β.;
(§2) RAW Blue cells were purchased from InvivoGen® (San Diego, CA), used at passages under 15, and cultured in DMEM growth medium supplemented with 10% serum, 50 U/mL penicillin and […] zeocin. Cells were grown in regular conditions (37° C., 5% CO2), serum starved overnight, and treated with 100 ng/ML IL-1β for 4 h. Cells were respectively pre-incubated for 30 min with peptides 1 and 2 (10^−6 M) or Kineret® (1.0 mg/mL) to reach equilibrium prior to the experiments (n=4 each treatment). Cells were harvested and incubated for 5 min in RIBOzol® (AMRESCO). RNA was extracted according to manufacturer's protocol and RNA concentration and integrity were measured with a NanoDrop® 1,000 spectrophotometer. A total of 500 ng of RNA was used to synthesize cDNA using iScript Reverse Transcription SuperMix® (Bio-Rad, Hercules, CA). Primers (Table 1) were designed using National Center for Biotechnology Information Primer Blast. Quantitative gene expression analysis was performed on Stratagene® MXPro3000 (Stratagene) with SYBR Green Master Mix (Bio-Rad). Gene expression levels were normalized to 18S universal primer (Ambion Life Technology, Burlington ON, Canada). Genes analyzed include […] and PTGHS2 [Prostaglandin H synthetase 2 or cyclooxygenase-2 (COX-2)]. Data are representative of 3 experiments (each with n=4 per treatment group).

IL-1β gene expression = assay: qPCR of IL-1β gene expression in RAW 264.7 macrophages; format: cell-based; details: peptide 10^−6 M, 30 min pre-incubation, IL-1β stimulation, RAW 264.7 mouse macrophages
Protocol: as §1, §2

[3] = tested on: IL-1β-induced phosphorylation of JNK; assay: IL-1β-induced JNK phosphorylation, Western blot, RAW Blue cells; format: cell-based; details: peptide 10^−6 M 30 min, then IL-1β 15 min
Protocol: (§3) FIGS. 5A-C are graphs showing the effects of peptides 1 and 2 on IL-1β-induced phosphorylation of p38 (FIG. 5A), JNK (FIG. 5B), and ROCK2 (FIG. 5C). Graphical representations of band density analysis of Western Blots are shown as fold activation compared to control. RAW Blue cells were pretreated with peptides 1 and 2 (10^−6 M), Kineret (1 mg/mL), or vehicle for 30 min and then stimulated with IL-1β for 15 min. Results shown are the average of 3 independent experiments: *p<0.05, ** p<0.01, ***p<0.001 compared to group treated only with IL-1β. Treatment groups that are not labeled with asterisks are statistically non-significant compared to group treated only with IL-1β.

timed-pregnant CD-1 mice = assay: LPS-induced preterm birth model in mice; format: in vivo, mouse; details: 2 mg/kg/day subcutaneous, LPS 10 μg intraperitoneal on G16.5; for PTB rate: delivery before G18.5, LPS alone ˜80%
Protocol: FIG. 6 is a graph showing the effects of peptides 1 and 2 on prevention of PTB. In brief, pregnant dams on day 16.5 of gestation (G16.5) were subcutaneously pretreated with peptides 1 and 2 (2 mg/kg/day subcutaneous injections) or vehicle, followed by LPS (10 μg intraperitoneal injection), and observed for delivery of pups. A dam was considered as delivering preterm if at least one pup was delivered before G18.5. n=4-5 dams per treatment group.
Timed-pregnant CD-1 mice at 16.5 days of gestation (G16.5) were anesthetized with 2% isoflurane and received an intraperitoneal injection of lipopolysaccharide (LPS, n=4 per group, a single dose of 10 ug) (Nadeau-Vallée et al., 2015; Kakinuma et al., 1997). A dosage of 2 mg/kg/day of peptides 1 and 2 or vehicle was respectively injected subcutaneously in the neck, every 12h until delivery. On G16.5, a dose of 1 mg/kg was injected 30 min before stimulation with LPS (to allow distribution of drugs to target tissues) and 1 mg/kg was injected 12h after stimulation (n=4 each treatment). Mice delivery was assessed every hour until term (G19-G19.5). A mouse was considered as delivering prematurely if the first pup was delivered earlier than G18.5. Data was analyzed using Prism 7 (GraphPad Software, San Diego, CA, USA) with one-way ANOVA and Dunnett's test for multiple comparisons. Outliers were detected using Grubb's test. Results were treated as significant when p was <0.05 and expressed as mean+SEM.
From the results of the in vitro screens, a subset of six (3R,4S)-β-substituted-Agl^3 peptides (e.g., 2c, 2d, 2f, 2l, 2n, 2q) were selected for examination in vivo in a CD-1 mouse model of preterm birth (PTB), and a Sprague Dawley rat model of oxygen-induced retinopathy (OIR). In the PTB model, timed-pregnant CD-1 dams were pre-treated with peptides 1 or 2, or PBS vehicle, and then injected with LPS on day 16.5 of gestation (G16.5). A bacterial cell wall component that contains PAMPs, LPS is known to reliably induce labor via pro-inflammatory pathways implicating IL-1 (Hirsch and Wang 2005). The CD-1 mice have a gestation of 19.2 days (Goupil et al. 2010). Dams that delivered at least one pup before G18.5 were considered to have given birth prematurely. In the absence of peptide, LPS alone induced premature labor in ˜80% of treated mice (FIG. 6). Peptide 1 and triazoles 2 l and 2q, all reduced the PTB rate to ˜20%.

[4] = tested on: IL-1β-induced phosphorylation of p38; assay: IL-1β-induced p38 phosphorylation, Western blot, RAW Blue cells; format: cell-based; details: peptide 10^−6 M 30 min, then IL-1β 15 min
Protocol: as §3

[5] = tested on: IL-1β-induced phosphorylation of ROCK2; assay: IL-1β-induced ROCK2 phosphorylation, Western blot, RAW Blue cells; format: cell-based; details: peptide 10^−6 M 30 min, then IL-1β 15 min
Protocol: as §3

| Substance | retinal microglial morphology/activation (Iba-1 staining) (Sprague Dawley rat pups) | COX-2 pro-inflammatory gene expression (qPCR) [2] | IL-1β pro-inflammatory gene expression (qPCR) (IL-1β gene expression) | extent of vaso-obliteration (percentage of total retinal area) (Sprague Dawley rat pups) | other results |
| --- | --- | --- | --- | --- | --- |
| [(3R, 4S)-4-(N3)Agl^3]-1 [2c] | active amoeboid state | – | – | – | protective effect against vaso-obliteration (Sprague Dawley rat pups): no detectable protective effect |
| Kineret®: the recombinant IL-1 receptor antagonist, Kineret® (anakinra) | – | – | – | – | effect on IL-1β-induced NF-κB signaling (secreted alkaline phosphatase) [1]: blocked |
| [(3R,4S)-4-(4′-(1,1-Dimethyl)aminomethyltriazolyl)Agl^3]-1 [2o] | – | strong inhibitory effects | strong inhibitory effects | – | – |
| [(3R,4S)-4-(4′-Hydroxymethyltriazolyl)Agl^3]-1 [2q] | ramified and branched microglia | strong inhibitory effects | strong inhibitory effects | ~20% | IL-1β-induced activation (phosphorylation) of JNK [3]: inhibited; PTB rate (timed-pregnant CD-1 mice): ~20% |
| [(3R,4S)-4-(4′-m-Aminophenyltriazolyl)Agl^3]-1 [2n] | ramified and branched microglia | – | – | ~20% | effects on PTB (timed-pregnant CD-1 mice): Neither N-oxyphthalimide 2f nor 4-m-aminophenyltriazole 2n exhibited effects on PTB |
| [(3S,4S)-4-(NCS)Agl^3]-1 [2d] | ramified and branched microglia | – | – | ~20% | IL-1β-induced p38 phosphorylation [4]: inhibiting; protective effect against vaso-obliteration (Sprague Dawley rat pups): tendencies to have a stronger protective effect than peptide 1 |
| [(3R,4S)-4-(H2NO)Agl^3]-1 [2g] | – | blocked expression | without effecting | – | IL-1β-induced ROCK2 phosphorylation [5]: inhibitory activity |
| [(3R,4S)-4-(4′-p-Methylphenyltriazolyl)Agl^3]-1 [2m] | – | strong inhibitory effects | strong inhibitory effects | – | – |
| [(3R,4S)-4-(PhthO)Agl^3]-1 [2f] | ramified and branched microglia | – | – | ~20% | effects on PTB (timed-pregnant CD-1 mice): Neither N-oxyphthalimide 2f nor 4-m-aminophenyltriazole 2n exhibited effects on PTB |
| [(3R,4S)-4-(4′-Phenyltriazolyl)Agl^3]-1 [2l] | ramified and branched microglia | – | – | ~20% | IL-1β-induced ROCK2 phosphorylation [5]: inhibitory activity; IL-1β-induced activation (phosphorylation) of JNK [3]: inhibited; IL-1β-induced p38 phosphorylation [4]: inhibiting; PTB rate (timed-pregnant CD-1 mice): ~20%; protective effect against vaso-obliteration (Sprague Dawley rat pups): tendencies to have a stronger protective effect than peptide 1 |
| [(3R,4S)-4-(AcHN)Agl^3]-1 [2i] | – | blocked expression | without effecting | – | IL-1β-induced p38 phosphorylation [4]: inhibiting |
